Data on two compounds can be found in article PMC10057893, “Synthesis and Biological Evaluation of New Schiff Bases Derived from 4-Amino-5-(3-fluorophenyl)-1,2,4-triazole-3-thione” (Molecules, 2023).

Molecules are shown by their SMILES. ≈ marks a conversion by molar mass, not a printed value. Where two headings read alike, the source gives them in different places.

In series [1] the test system is yeast reference strains (Candida spp.). The experiment in a line: Positive control antifungal, broth microdilution MIC. The class given is cell-based. The following applies: range over yeast reference strains. The protocol:
The reference antibiotics used during our studies for the selected species of reference bacteria were ciprofloxacin and cefuroxime (Merck KGaA, Darmstadt, Germany). Nystatin (Merck KGaA, Darmstadt, Germany), a known antifungal antibiotic, was used as a positive control for Candida spp.
All reference antimicrobials against bacteria or fungi were tested in a final concentration range from 0.0049 to 10 µg/mL. The tested Schiff bases were two-fold diluted in the concentration range from 0.49 to 1000 μg/mL in culture broth medium for bacteria or fungi. The medium with DMSO at the final concentrations and without the tested Schiff bases served as a control—no microbial growth inhibition was observed. Three types of control were also carried out simultaneously: (1) serial dilution of the tested Schiff bases in broth medium (without bacteria or fungi) in the same concentration range, (2) a growth control for each strain in broth medium and agar medium for bacteria or fungi, and (3) a negative control of sterile broth or agar medium. […]
After incubation, 5 μL of the broth media cultured with bacteria or fungi were removed from each well of the plates used in the MIC experiments. […] After incubation, a visual reading of MBC or MFC values was made. […]
Background: In broth dilution the organism is exposed to a series of concentrations in liquid medium.

The subject of a further series is MDA-MB-231. The experiment in a line: MTT cell viability assay. The class given is cell-based, human. The settings on record: Homo sapiens, MDA-MB-231, MTT, read-out: Cytotoxic activity IC50. The protocol: (§1) All the cell lines were purchased from the American Type Culture Collection (ATCC, Rockville, MD, USA) and cultured in strictly defined conditions according to the recommended ATCC protocol. The PC3 cells were cultured in RPMI 1640 (Roswell Park Memorial Institute, Biowest SAS, Nuaillé, France), while the MDA-MB-231 and HaCaT cells were maintained in DMEM (Dulbecco’s Modified Eagle’s Medium, Biowest SAS, Nuaillé, France) supplemented with 1% streptomycin and penicillin and in 10% heat-inactivated fetal bovine serum (FBS, Gibco BRL San Francisco, CA, USA) with 1% streptomycin and penicillin. The cells were incubated in a 37 °C/5% CO2 humidified incubator. They were cultured until 80–90% confluence was achieved. Then, they were harvested by treatment with 0.25% trypsin-0.02% EDTA (Gibco BRL, San Francisco, CA, USA) and used in the experiments. Untreated cells were used as a control. […] After 24 h of incubation, the culture medium was replaced with a fresh medium. […] Then, the medium was aspirated and formed formazan crystals were solubilized by adding isopropanol-DMSO mixture (1:1 vol). The intensity of the dissolved crystals was measured using a UVM 340 reader (ASYS Hitech GmbH, Eugendorf, Austria) at a wavelength of 570 nm. Cell viability was estimated by the percentage of MTT reduction in cells to which the tested compounds were added, compared to the control sample, where only the medium was added. The experiments were repeated three times. The IC50 was calculated using GraphPad Prism 9.0.0 (GraphPad Software).
(In general: Formazan colour is commonly taken as a measure of viable cells.)

The subject of another series is PC3. The experiment in a line: MTT cell viability assay. In kind it is cell-based, human. The settings on record: Homo sapiens, PC-3, PC3, MTT, read-out: Cytotoxic activity IC50. The protocol:
as §1

Series [2] has as its system tested strains of bacteria. Set-up: method as in PMID 25412038. The settings on record: cited from earlier work.
The next series concerns C. albicans. Set-up: method as in PMID 25412038. The settings on record: cited from earlier work.
A short description of another series: MTT cell viability assay. In kind it is cell-based. The settings on record: human, HaCaT cells (immortal keratinocytes), HaCaT normal cell line, read-out: Cytotoxic activity IC50 (converted). Here is the method: as §1
For series [3], the system named is Escherichia coli ATCC 25922. Nature of the series: Broth microdilution MIC/MBC, antibacterial. The settings on record: ATCC25922, Escherichia coli ATCC 25922. In kind it is cell-based. The protocol:
(§2) The minimal inhibitory concentration (MIC) was determined with the microdilution technique using 96-well polystyrene microplates (Medlab, Poland), as indicated by the European Committee on Antimicrobial Susceptibility Testing (EUCAST) guidelines. In this process, stock solutions of each tested Schiff base dissolved in dimethylsulphoxide (DMSO, Stanlab, Poland) were used at a concentration of 50 mg/mL. Before in vitro antibacterial activity detection, the basic concentration of 1000 µg/mL of each compound was prepared with Mueller–Hinton broth medium (MHB, BioMaxima, Lublin, Poland). The experiment was prepared using Mueller–Hinton broth medium in 96-well microplates. A series of two-fold dilutions of the tested compounds in the concentration range from 0.49 to 1000 μg/mL was made in culture broth medium. Then, 2 μL of bacterial inoculum with a density of 0.5 McFarland standard was added to each well. Each well was filled with a total volume of 100 μL. Then, the microtiter plates were incubated for 18 ± 2 h at 35 °C. After the incubation, the results were spectrophotometrically determined in Biotek ELx800 (Biokom, Janki, Poland) at 600 nm (OD600). The lowest concentration of the tested compounds with the absence of bacterial growth was determined as an MIC. Three replicates for each strain and compound were performed.
(§3) After incubation, 5 μL of the broth media cultured with bacteria or fungi were removed from each well of the plates used in the MIC experiments. Next, they were culturd onto the surface of the MHA medium (BioMaxima, Lublin, Poland) plate for bacteria or MHA +2% glucose plate for yeasts. The inoculated plates were incubated in the conditions mentioned above. After incubation, a visual reading of MBC or MFC values was made. […] Three replicates for each strain and compound were performed.

Series [4] relates to Bacillus subtilis ATCC 6633. The experiment in a line: Broth microdilution MIC/MBC, antibacterial. The class given is cell-based. The following applies: ATCC6633. The protocol: as §2, §3
The test system of series [5] is Micrococcus luteus ATCC 10240. Nature of the series: Broth microdilution MIC/MBC, antibacterial. The settings on record: ATCC10240. In kind it is cell-based. Here is the method: as §2, §3
For series [6], the system named is Pseudomonas aeruginosa ATCC 27853. Nature of the series: Broth microdilution MIC/MBC, antibacterial. The following applies: ATCC27853. In kind it is cell-based. Here is the method:
as §2, §3

For series [7], the system named is Klebsiella pneumoniae ATCC 13883. The experiment in a line: Broth microdilution MIC/MBC, antibacterial. The class given is cell-based. The following applies: ATCC13883, Klebsiella pneumoniae ATCC 13883. The protocol: as §2, §3
Series [8] deals with Staphylococcus epidermidis ATCC 12228. Nature of the series: Broth microdilution MIC/MBC, antibacterial. In kind it is cell-based. The settings on record: ATCC12228. Here is the method: as §2, §3
Series [9] has as its system Staphylococcus aureus ATCC 6538. The experiment in a line: Broth microdilution MIC/MBC, antibacterial. In kind it is cell-based. The settings on record: ATCC6538. The protocol: as §2, §3
In series [10] the test system is Candida lusitaniae ATCC 3449. The experiment in a line: Broth microdilution MIC/MFC, antifungal. In kind it is cell-based. The following applies: Clavispora lusitaniae, ATCC3449. Here is the method: (§4) To determine the antifungal activity of the newly synthesized Schiff bases against the reference strains of Candida spp., the broth microdilution method was used according to the EUCAST [52] and Clinical and Laboratory Standards Institute (CLSI) guidelines with some modifications to the medium. Before in vitro antifungal activity detection, the basic concentration of 1000 µg/mL of each compound was prepared with Mueller–Hinton broth (BioMaxima, Lublin, Poland) supplemented with 2% glucose (MHB+2% glucose). […] The final concentrations of the Schiff bases ranged from […] to 1000 µg/mL. All the reference strains of Candida spp. used were first subcultured to the Mueller–Hinton agar medium (BioMaxima, Lublin, Poland) with 2% glucose (MHA +2% glucose) at 37 °C for 24 h. Next, 2 µL of appropriate fungal suspensions was added to each well containing 100 µL of MHB + 2% glucose and the various concentrations of the tested Schiff bases.
as §3

Series [11] deals with Candida glabrata ATCC 15126. The experiment in a line: Broth microdilution MIC/MFC, antifungal. The following applies: Nakaseomyces glabratus, ATCC15126. The class given is cell-based. Here is the method: as §4, §3
Series [12] concerns Candida tropicalis ATCC 1369. Nature of the series: Broth microdilution MIC/MFC, antifungal. The class given is cell-based. The settings on record: ATCC1369. Here is the method:
as §4, §3

The test system of series [13] is Candida glabrata ATCC 90030. Nature of the series: Broth microdilution MIC/MFC, antifungal. The class given is cell-based. The following applies: Nakaseomyces glabratus, ATCC90030. The protocol:
as §4, §3

Series [14] relates to Candida albicans ATCC 10231. The experiment in a line: Broth microdilution MIC/MFC, antifungal. The class given is cell-based. The settings on record: ATCC10231. The protocol: as §4, §3
For series [15], the system named is Candida krusei ATCC 14243. The experiment in a line: Broth microdilution MIC/MFC, antifungal. The settings on record: Pichia kudriavzevii, ATCC14243. In kind it is cell-based. Here is the method:
as §4, §3

In a further series the test system is Candida auris CDC B11903. Nature of the series: Broth microdilution MIC/MFC, antifungal. In kind it is cell-based. The following applies: Candidozyma auris, CDCB11903. Here is the method:
as §4, §3

What is called MIC is the smallest concentration in the dilution series that meets the test's criterion for growth inhibition. Compound `C[C@@H]1[C@H](O)[C@@H](C)/C=C/C=C/CC/C=C/C=C/C=C/C=C/C(O[C@H]2O[C@H](C)[C@@H](O)[C@H](N)[C@@H]2O)CC2O[C@](O)(CC(O)C(O)CCC(O)CC(O)CC(O)CC(=O)O[C@H]1C)CC(O)C2C(=O)O` (stereo partly shown) [Nystatin] displayed an MIC in series [1] of 0.24 to 0.48 µg/mL. In addition, the MBC in [1] (printed MIC = MBC) was 0.24 to 0.48 µg/mL.
What is called IC50 is the concentration needed to halve the response being measured. A word on the melting point: it is the temperature of the solid-liquid transition. In turn, `Fc1ccc(C=Nn2c(-c3cccc(F)c3)n[nH]c2=S)cc1` [RO7, 4-[(4-fluorobenzylidene)amino]-5-(3-fluorophenyl)-2,4-dihydro-3H-1,2,4-triazole-3-thione] yielded a melting point of 217 to 218 °C. The IC50 in the series with MDA-MB-231 (72 h (table footnote)) is > 100 µM. Further, in the series with MDA-MB-231 (same value in µg/mL), the IC50 was > 31.6 µg/mL. The half-maximal inhibitory concentration (IC50) in the series with PC3 (72 h (table footnote)) is > 100 µM. Further, the IC50 with PC3 (same value in µg/mL) was > 31.6 µg/mL. Moreover, the MICs in series [2] was 16 to 125 µg/mL. For the same compound, the MIC in the series on C. albicans is reported as 4 µg/mL (≈ 0.0126 mM). Moreover, in the series “MTT cell viability assay” (72 h (table footnote)), the 50% inhibitory concentration (IC50) at 72 h was > 100 µM. The 50% inhibitory concentration (IC50) at 72 h in the series “MTT cell viability assay” (same value in µg/mL) is > 31.6 µg/mL. In series [3], the minimal inhibitory concentration (MIC) was > 1000 µg/mL. Further, the MIC in series [4] was > 1000 µg/mL. Moreover, in series [5], the MBC is > 1000 µg/mL and the MIC worked out at 250 µg/mL (≈ 0.79 mM). In addition, the MIC in series [6] was > 1000 µg/mL. Also, the minimal inhibitory concentration (MIC) in series [7] is > 1000 µg/mL. In series [8], the MBC was > 1000 µg/mL and the minimal inhibitory concentration (MIC) was determined as 500 µg/mL (≈ 1.58 mM). Further, in [9], the MBC was > 1000 µg/mL and the MIC came out at 500 µg/mL (≈ 1.58 mM). The minimal inhibitory concentration (MIC) in series [10] was > 1000 µg/mL. Besides, the MIC in series [11] was > 1000 µg/mL. Besides, in [12], the MIC is > 1000 µg/mL. The minimal inhibitory concentration (MIC) in series [13] was > 1000 µg/mL. Further, the MIC in [14] is > 1000 µg/mL. In [15], the minimal inhibitory concentration (MIC) was > 1000 µg/mL. Also, the MIC against Candida auris CDC B11903 is > 1000 µg/mL.
